Patent US20240269308A1, “PRODRUGS OF TOPOISOMERASE I INHIBITOR FOR ADC CONJUGATIONS AND METHODS OF USE THEREOF” (priority 2022, published 2024)

Legend:
BCRP = biological target: T1, BCRP (Homo sapiens, UniProt Q9UNQ0); conditions: not told
T1 sequence (Q9UNQ0 1-655): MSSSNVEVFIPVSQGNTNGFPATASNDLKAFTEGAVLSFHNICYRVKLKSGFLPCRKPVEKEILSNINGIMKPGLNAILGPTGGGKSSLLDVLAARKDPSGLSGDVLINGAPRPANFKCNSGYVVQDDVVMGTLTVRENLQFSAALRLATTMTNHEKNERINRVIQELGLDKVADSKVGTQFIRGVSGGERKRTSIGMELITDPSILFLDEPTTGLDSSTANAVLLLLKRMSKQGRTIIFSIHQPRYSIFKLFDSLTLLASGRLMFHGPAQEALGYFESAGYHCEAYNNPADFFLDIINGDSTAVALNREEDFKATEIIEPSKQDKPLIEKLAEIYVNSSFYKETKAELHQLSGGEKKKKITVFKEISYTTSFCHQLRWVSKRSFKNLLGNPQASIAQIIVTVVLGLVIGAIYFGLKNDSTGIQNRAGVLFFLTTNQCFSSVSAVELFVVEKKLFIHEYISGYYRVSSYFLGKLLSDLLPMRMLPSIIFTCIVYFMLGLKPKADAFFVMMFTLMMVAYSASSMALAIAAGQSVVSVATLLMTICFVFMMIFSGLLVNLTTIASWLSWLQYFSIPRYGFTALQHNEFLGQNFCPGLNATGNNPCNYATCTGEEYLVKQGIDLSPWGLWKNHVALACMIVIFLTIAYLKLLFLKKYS

[1] = Mouse whole blood stability test; assay type: in vitro ADME; conditions: mouse, 1 μM
pGP = pGP (Homo sapiens, UniProt P08183); conditions: not told
Chain of pGP (P08183 whole entry): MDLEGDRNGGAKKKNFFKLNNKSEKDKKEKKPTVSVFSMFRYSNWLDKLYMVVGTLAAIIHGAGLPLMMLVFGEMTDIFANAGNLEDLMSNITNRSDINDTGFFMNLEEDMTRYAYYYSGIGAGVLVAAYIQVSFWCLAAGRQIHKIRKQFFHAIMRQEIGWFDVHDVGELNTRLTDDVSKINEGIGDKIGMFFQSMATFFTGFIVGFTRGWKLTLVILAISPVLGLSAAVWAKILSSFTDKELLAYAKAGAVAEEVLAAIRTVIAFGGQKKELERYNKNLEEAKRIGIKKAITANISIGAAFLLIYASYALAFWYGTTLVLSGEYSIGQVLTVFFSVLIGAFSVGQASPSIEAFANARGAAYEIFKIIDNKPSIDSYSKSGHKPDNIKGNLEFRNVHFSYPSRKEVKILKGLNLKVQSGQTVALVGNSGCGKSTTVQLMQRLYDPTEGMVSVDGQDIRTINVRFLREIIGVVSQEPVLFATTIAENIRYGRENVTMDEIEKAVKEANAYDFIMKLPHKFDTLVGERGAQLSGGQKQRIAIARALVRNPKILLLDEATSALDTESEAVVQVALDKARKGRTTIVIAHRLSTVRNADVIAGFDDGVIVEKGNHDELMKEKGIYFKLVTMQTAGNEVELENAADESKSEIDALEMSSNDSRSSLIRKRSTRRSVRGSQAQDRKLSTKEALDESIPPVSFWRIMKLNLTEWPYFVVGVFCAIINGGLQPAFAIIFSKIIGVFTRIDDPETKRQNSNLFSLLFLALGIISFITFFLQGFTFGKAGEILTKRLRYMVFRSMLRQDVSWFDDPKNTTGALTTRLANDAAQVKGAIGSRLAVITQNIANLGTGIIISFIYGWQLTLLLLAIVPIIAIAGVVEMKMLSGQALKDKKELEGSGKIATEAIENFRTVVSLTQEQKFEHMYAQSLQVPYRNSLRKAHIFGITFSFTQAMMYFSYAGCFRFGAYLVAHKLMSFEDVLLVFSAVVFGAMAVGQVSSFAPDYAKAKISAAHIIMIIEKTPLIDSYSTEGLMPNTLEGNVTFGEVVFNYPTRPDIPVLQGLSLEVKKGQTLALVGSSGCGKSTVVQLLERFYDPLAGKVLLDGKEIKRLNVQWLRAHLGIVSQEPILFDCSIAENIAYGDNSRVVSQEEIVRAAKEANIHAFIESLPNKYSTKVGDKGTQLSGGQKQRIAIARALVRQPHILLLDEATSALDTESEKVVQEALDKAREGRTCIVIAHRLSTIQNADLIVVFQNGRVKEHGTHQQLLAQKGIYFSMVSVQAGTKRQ

[2] = M3385 metabolism in human liver S9 with NADPH and UDPGA; assay type: in vitro ADME; conditions: human, 240 min, 10 μM, pH 7.4
Text: Briefly, hepatocytes are complete liver cells, containing various first-phase and second-phase enzymes that can mediate various metabolic reactions; therefore, it is a better in vitro model to test metabolites. Liver S9 is the supernatant obtained by grinding and centrifuging the liver cells. The enzymes content is lower compared to Hepatocytes. It mainly contains CYP enzymes and some biphasic enzymes (but no biphasic coenzyme), so additional coenzyme (NADPH and UDPGA, etc.) is needed to mediate the biphasic reaction.
The metabolism of model compound M3385 was evaluated in human liver S9 with NADPH and UDPGA as follows:
Assay buffer: 100 mM potassium phosphate buffer (K+/Mg2+ buffer, pH7.4):
The initial stock of liver S9 was diluted in K+/Mg^2+ buffer, pH 7.4 from 20 mg/ml to 2× Liver S9 (2 mg/mL) with alamethicin (50 μg/mL):
2×LS9/compound M3385 solution was prepared.
Time zero/T0: 199 μL 2 mg/mL liver S9 solution; 100 μL of 8 mM NADPH solution; 100 μL of 20 mM UDPGA solution; and 1200 μL of ACN were added, vortexed at 1000 rpm for 5 min, then 1 μL of 4 mM test compound solution was added.
T240 with a co-factor: 199 μL 2 mg/mL liver S9 solution; 100 μL of 8 mM NADPH solution; and 100 μL of 20 mM UDPGA solution were added. The T240 sample was prewarmed at 37° C. for 5 min and 1 μL of 4 mM test compound solution was added. After 240 min incubation, 1200 μL of ACN was added and then vortexed at 1000 rpm for 5 min.
Protein precipitation: quenched samples were centrifuged at 14000 rpm for 5 min.
Sample preparation: an aliquot of 1200 μL of the supernatant was evaporated under N2 stream until dry. Dried extracts were reconstituted with 200 μL of 25% aqueous ACN, vortexed for 2 minutes, centrifuged at 14000 rpm for 5 min, and then 3 μL of reconstituted supernatant were injected for LC-UV-MS analysis.

For `CC[C@@]1(O)C(=O)OCc2c1cc1n(c2=O)Cc2c-1nc1cc(F)c(C)c3c1c2[C@@H](NC(=O)COCNC(=O)CN)CC3` [ProDXd], the BCRP efflux rate (BCRP) was “Lower”, the “% of test compound in whole blood (initial 1 uM as 100%)” value (“% of test compound in whole blood” for short) ([1]; 0 hr) was 100.0% and the “% of test compound in whole blood” value ([1]; 0.25 hr) was 63.9%. The “% of test compound in whole blood” value ([1]; 0.5 hr) was 39.0%, the “% of test compound in whole blood” value ([1]; 1 hr) was 30.7% and the “% of test compound in whole blood” value ([1]; 2 hr) was 14.8%. For the same compound, the “% of test compound in whole blood” value ([1]; 4 hr) was 2.7%, the “% of test compound in whole blood” value ([1]; 8 hr) was 0.3% and the “% of test compound in whole blood” value ([1]; 24 hr) was 0.0%. The pGP efflux rate (pGP) was “Lower” and the “Relative UV Abundance* (%), group total” value [2] was 3.94%.
